Measured values: PMC7012964, “Biopharmaceutical Understanding of Excipient Variability on Drug Apparent Solubility Based on Drug Physicochemical Properties. Case Study: Superdisintegrants” (The AAPS Journal, 2020)
Values after ≈ are worked out from the molar mass of the structure shown. Where two headings read alike, the source gives them in different places.

Legend:
[1] = Shake-flask drug solubility in absence of excipient (reference solubility); assay type: physicochemical
Experimental: (§1) Compendial media (0.1 N HCl pH 1, phosphate buffer pH 6.8) were prepared according to the method described in European Pharmacopoeia ([35]). Fasted State Simulated Gastric Fluid (FaSSGF) and Fasted State Simulated Intestinal Fluid (FaSSIF-V2) were prepared as described by Jantratid et al.([36]).
(§2) Drug solubility studies in the absence and presence of excipient were performed in triplicate using the shake-flask method ([38]). Drug excess amount and 2% w/w or 5% w/w of each excipient were weighed and placed in centrifuge tubes. […] The physical mixtures were vortexed for 3 min. Then 5 mL of each medium was added in the tubes and the samples were placed in a shaking water bath (37°C, 200 strokes per minute (spm)). […] Filter adsorption studies were prior performed in triplicate for each drug. […] Filtered samples were further diluted (if needed) with the corresponding medium and analysed by HPLC (Supplementary Table I). Analytical HPLC procedures for drug quantification in the samples were modifications of already published methods. Drug quantification was made based on calibration curves. Standards were formulated from concentrated stock solution consisting of drug dissolved in MeOH. […] Drug solubility was calculated based on the sample drug concentration measured.

[2] = Relative effect (RE) of superdisintegrant on drug apparent solubility (shake-flask, physical mixtures); assay type: physicochemical
Experimental: as §1, §2

[3] = ref (20), (22), (23), (25), DrugBank, (28), (31), (33); cited from earlier work
[4] = set-up: method as in earlier work; details: ref (20), (22), (24), (25), (27), (30), (31), (34); cited from earlier work
[5] = aqueous buffer, thermodynamic from solid, Phosphate buffer pH 6.8 (compendial), 37°C, mean ± SD, read-out: Reference solubility
[6] = fassgf or other biorelevant, thermodynamic from solid, FaSSGF (biorelevant), 37°C, mean ± SD, read-out: Reference solubility
[7] = simulated gastric fluid, thermodynamic from solid, 0.1 N HCl pH 1 (compendial), 37°C, mean ± SD, read-out: Reference solubility
[8] = thermodynamic from solid, FaSSIF-V2 (biorelevant), 37°C, mean ± SD, read-out: Reference solubility

Structure (SMILES) | solubility at 24 h [1, 5] [µg/mL] | solubility at 0.5 h ([1]; compendial media (0.1 N HCl pH 1; phosphate buffer pH 6.8), 37 °C, thermodynamic from solid, compendial media, 0.5 h, read-out: Solubility of pure drug) [µg/mL] | solubility at 24 h ([1]; compendial media (0.1 N HCl pH 1; phosphate buffer pH 6.8), compendial media, read-out: Solubility of pure drug) [µg/mL] | solubility at 24 h [1, 6] [µg/mL] | solubility at 24 h [1, 7] [µg/mL] | solubility at 24 h [1, 8] [µg/mL] | Relative effect (RE) of excipient on drug solubility ([2]; CCS(L), high level, phosphate buffer pH 6.8, 24 h) [%] | Ionization (type) [3] | Solubility (based on BCS classification) [4] | Relative effect (RE) of excipient on drug solubility ([2]; 5% CCS(H), FaSSIF-V2, 24 h) [%] | Relative effect (RE) of excipient on drug solubility ([2]; CCS(H), low level, FaSSIF-V2, 24 h) [%] | Relative effect (RE) of excipient on drug solubility ([2]; Explotab CLV (SSG), high excipient level, FaSSIF-V2, 24 h) [%] | Relative effect (RE) of excipient on drug solubility ([2]; Glycolys (SSG), both excipient levels, FaSSIF-V2, 24 h) | Relative effect (RE) of excipient on drug solubility ([2]; Glycolys (SSG), high excipient level, 0.1 N HCl pH 1, 24 h) [%] | Relative effect (RE) of excipient on drug solubility ([2]; Glycolys (SSG), low excipient level, 0.1 N HCl pH 1, 24 h) [%] | Relative effect (RE) of excipient on drug solubility ([2]; Glycolys LV (SSG), high excipient level, FaSSIF-V2, 24 h) [%]
NC(=O)N1c2ccccc2C=Cc2ccccc21 [CBZ, Carbamazepine] | 227 (≈ 961 µM) | 350 (≈ 1480 µM) | 250 (≈ 1060 µM) | 368 (≈ 1560 µM) | 265 (≈ 1120 µM) | 280 (≈ 1190 µM) | 37 | Neutral | Low (27) | – | – | – | – | – | – | –
OCCN(CCO)c1nc(N2CCCCC2)c2nc(N(CCO)CCO)nc(N3CCCCC3)c2n1 [DPL, Dipyridamole] | 5 (≈ 9.91 µM) | – | – | 8600 (≈ 17000 µM) | 13000 (≈ 25800 µM) | 13 (≈ 25.8 µM) | – | Weak base | Low (30) | – | – | – | – | – | – | –
CC(C)Cc1ccc(C(C)C(=O)O)cc1 (centres unmarked) [IBU, Ibuprofen] | 5500 (≈ 26700 µM) | – | – | 44 (≈ 213 µM) | 43 (≈ 208 µM) | 1500 (≈ 7270 µM) | – | Weak acid | – | – | – | – | – | – | – | –
CCC(C)n1ncn(-c2ccc(N3CCN(c4ccc(OCC5COC(Cn6cncn6)(c6ccc(Cl)cc6Cl)O5)cc4)CC3)cc2)c1=O (centres unmarked) [ITZ, Itraconazole] | < 0.015 | – | – | 1.2 (≈ 1.7 µM) | 11 (≈ 15.6 µM) | 0.05 (≈ 0.0709 µM) | – | Weak base | Low (34) | 31 | −40 | 25 | approximately 50% | −25 | −23 | 42
CC(=O)Nc1ccc(O)cc1 [PRC, Paracetamol] | 15000 (≈ 99200 µM) | – | – | 17000 (≈ 112000 µM) | 16000 (≈ 106000 µM) | 17000 (≈ 112000 µM) | – | Neutral | – | – | – | – | – | – | – | –
